Converted amounts (≈) assume the structure as drawn.
conditions: buffer; pH 7.4; 200.0 µM

First: CCC1CCc2c(sc(NC(=O)c3cnccn3)c2C(N)=O)C1 (centres undefined)
Second: CCOC(=O)Cc1csc(NC(=O)c2cccc([N+](=O)[O-])c2)n1
The solubility kinetic of the first is lower: 1.8 µg/mL (≈ 5.45 µM) for the first, over 50.3 µg/mL for the second.

Going from O=C(CSc1nccc(=O)[nH]1)NCc1ccco1 to O=C(CCNC(=O)c1ccco1)Nc1nc(-c2ccccc2)cs1, the solubility kinetic falls from over 39.8 µg/mL to 8.5 µg/mL (≈ 24.9 µM).

Compared with Cc1ccc(-c2nc(C=Nc3cccc(C)c3)c(O)o2)cc1, Cc1ccc(-c2c(NC(=O)C(C)C)n(C)c3ccccc3c2=O)cc1 is 42-fold higher in solubility kinetic: 0.7 µg/mL (≈ 2.39 µM) for the first, 29.4 µg/mL (≈ 87.9 µM) for the second.

Compared with CCN(C(=O)c1ccc(Cl)c([N+](=O)[O-])c1)c1ccccc1, CCOC(=O)c1ccc(N2C(=O)Cc3ccccc3C2=O)cc1 is higher in solubility kinetic: 35.8 µg/mL (≈ 117 µM) for the first, over 46.4 µg/mL for the second.

Going from CC1CCCCC12NC(=O)N(CC(=O)N1CCc3ccccc31)C2=O (centres undefined) to COc1ccccc1CNC(=O)CN1C(=O)NC2(CCC(C)CC2)C1=O (centres undefined), the solubility kinetic rises from 3.7 µg/mL (≈ 10.8 µM) to over 53.9 µg/mL.

Going from COc1ccc(Nc2nc(C)nc3c2oc2ccccc23)cc1 to COc1ccc(-n2c(=S)[nH]c(=O)c3cccnc32)cc1, the solubility kinetic rises from 1.7 µg/mL (≈ 5.57 µM) to 11 µg/mL (≈ 38.6 µM) (6.5-fold).

Compared with Cc1noc(C)c1CC(=O)Nc1ccc2c(c1)OCO2, Cc1ccc(S(=O)(=O)N2CCC[C@H]2C(=O)OCC(=O)Nc2ccc3c(c2)OCO3)cc1 is lower in solubility kinetic: over 41.1 µg/mL for the first, 34.3 µg/mL (≈ 76.8 µM) for the second.

Going from CCCCCCCNC(=O)c1cc(-c2ccncc2)nc2ccccc12 to CC(C)(C)c1ccccc1NC(=O)c1cc(-c2ccncc2)nc2ccccc12, the solubility kinetic rises from 0.8 µg/mL (≈ 2.3 µM) to 10.8 µg/mL (≈ 28.3 µM) (14-fold).

Compared with O=C(NCC(=O)N1CCN(c2ccccc2)CC1)c1cccs1, O=C(N/C(=C\c1ccco1)C(=O)N1CCCC1)c1ccccc1 is lower in solubility kinetic: over 49.4 µg/mL for the first, 41.6 µg/mL (≈ 134 µM) for the second.

Going from Nc1ccc2nc(NC(=O)C3CCCCC3)sc2c1 to Cc1cccc(OCC(=O)NC2CCCCCC2)c1C, the solubility kinetic falls from 30.2 µg/mL (≈ 110 µM) to under 0.6 µg/mL.

First: C=C(C)[C@@H]1CC=C(CN2CCC(CCOC)(C(=O)OCC)CC2)CC1
Second: Cc1ccc(SCC(=O)OCC(=O)NC2CCCCCC2)cc1
The solubility kinetic of the first is lower: 38.7 µg/mL (≈ 111 µM) for the first, over 50.3 µg/mL for the second.

Going from COc1ccc(N2CC(C(=O)Nc3ccncc3)CC2=O)cc1 (centres undefined) to O=C(Nc1ccccc1C(=O)Nc1ccncc1)c1ccccc1, the solubility kinetic falls from over 46.7 µg/mL to 6 µg/mL (≈ 18.9 µM).

Going from O=C(Nc1ccc2c(c1)OCCO2)c1cc(F)c(F)cc1Cl to COc1ccc(C(=O)NCc2ccc3c(c2)OCO3)cc1, the solubility kinetic rises from 2.8 µg/mL (≈ 8.6 µM) to 42.4 µg/mL (≈ 149 µM) (15-fold).

Compared with CSc1ncc(C(=O)Nc2ccccc2)cn1, Cc1cc(C)c2cc(C(=O)Nc3ccccc3)[nH]c2c1 is lower in solubility kinetic: over 36.8 µg/mL for the first, 1.2 µg/mL (≈ 4.54 µM) for the second.

COc1cc([N+](=O)[O-])ccc1NC(=S)N1CCOCC1 and Cc1cccc(NC(=S)N2CCN(S(C)(=O)=O)CC2)c1 cannot be ordered by solubility kinetic: over 44.6 µg/mL for the first, over 47 µg/mL for the second.

Compared with CC(C)n1c(NCc2ccccc2O)nc2ccccc21, CC1CC(=O)C2=C(C1)Nc1nc3ccccc3n1C2c1cccnc1 (centres undefined) is 4.8-fold lower in solubility kinetic: 15.8 µg/mL (≈ 56.2 µM) for the first, 3.3 µg/mL (≈ 9.99 µM) for the second.

Cc1noc(NS(=O)(=O)c2ccc(NC(=O)C(C)C)cc2)c1C and Cc1csc(NC(=O)c2ccc(S(=O)(=O)N3CCN(C)CC3)cc2)n1 cannot be ordered by solubility kinetic: over 50.6 µg/mL for the first, 54.5 µg/mL (≈ 143 µM) for the second.

CCN(CC)c1ccc(CNCCc2ccc(F)cc2)cc1.Cl and CSc1ccc(CNCC(O)c2ccccc2)cc1.Cl (centres undefined) cannot be ordered by solubility kinetic: over 50.5 µg/mL for the first, over 46.5 µg/mL for the second.

Compared with O=C(CSCCS(=O)(=O)c1ccc(Cl)cc1)Nc1ccccc1, CN(C)c1ccc(NC(=O)CN2C(=O)c3ccccc3C2=O)cc1 is 3.2-fold higher in solubility kinetic: 3.5 µg/mL (≈ 9.46 µM) for the first, 11.3 µg/mL (≈ 34.9 µM) for the second.

First: C/C(=N\OC(=O)c1ccccc1)c1c(C)nc2cc(C)ccn12
Second: COc1ccccc1C(=O)NC(=O)CSc1nnc2ccccn12
The solubility kinetic of the first is lower: 44.7 µg/mL (≈ 145 µM) for the first, over 51.4 µg/mL for the second.

Compared with CCn1c(C)cc(/C=C2/SC(=O)N(C(C)C(=O)OC)C2=O)c1C (centres undefined), Cc1cc(C(=O)CSc2nc(N)cc(=O)[nH]2)c(C)n1CC1CCCO1 (centres undefined) is higher in solubility kinetic: 22.3 µg/mL (≈ 66.3 µM) for the first, over 54.4 µg/mL for the second.

Compared with C=CCSc1nsc(NC(=O)Nc2ccc(F)cc2)n1, O=C(Cc1ccsc1)Nc1cc(F)ccc1F is higher in solubility kinetic: 1.2 µg/mL (≈ 3.87 µM) for the first, over 38 µg/mL for the second.

OCCNCCCOc1cc(Cl)ccc1Cl and O=C(O)CNC(=O)/C=C/c1ccc(Cl)cc1Cl are within 1.5-fold of each other in solubility kinetic: 31.9 µg/mL (≈ 121 µM) for the first, 37.6 µg/mL (≈ 137 µM) for the second.

Going from COC(=O)c1ccc(COC(=O)c2cccn2C)o1 to Cc1cccc(C)c1NC(=O)CNC(=O)c1cccnc1, the solubility kinetic rises from 27.1 µg/mL (≈ 103 µM) to over 42.5 µg/mL.

Compared with COc1ccc(O)c(CN2CCCC(C(=O)c3ccccc3SC)C2)c1 (centres undefined), COc1ccc(NC(=O)CCc2nc3ccccc3c(=O)[nH]2)cc1S(=O)(=O)N1CCCCC1 is 1.8-fold lower in solubility kinetic: 17.7 µg/mL (≈ 47.6 µM) for the first, 9.6 µg/mL (≈ 20.4 µM) for the second.

Compared with COc1ccc(C(=O)O/N=C(/C(N)=O)P(=O)(OC(C)C)OC(C)C)cc1, COC(=O)c1ccc(NC(=O)CN2C(=O)NC3(CCC(C)CC3)C2=O)cc1 (centres undefined) is 4.9-fold lower in solubility kinetic: 49.1 µg/mL (≈ 127 µM) for the first, 10.1 µg/mL (≈ 27 µM) for the second.

Compared with O=C(/C=C/c1ccc([N+](=O)[O-])s1)N1CCCCC1, Cc1ccc(C(=O)N2C3=C(CCCC3)C(=O)NC23CCCCC3)cc1 is lower in solubility kinetic: over 39.9 µg/mL for the first, 2.1 µg/mL (≈ 6.2 µM) for the second.

First: Cc1ccc(C)c(NC(=O)CN(C)C(=O)/C=C/c2ccco2)c1
Second: CC(C)Cc1ccc(C(C)C(=O)Nc2ncccn2)cc1 (centres undefined)
The solubility kinetic of the first is higher: over 46.9 µg/mL for the first, 35.9 µg/mL (≈ 127 µM) for the second.

Going from O=C(Nc1ccc(-c2ccccc2)cc1)c1ccccc1 to C=CCn1c(O)c(Cc2ccc(OCC)cc2)c(=O)[nH]c1=O, the solubility kinetic rises from 1 µg/mL (≈ 3.66 µM) to 43.7 µg/mL (≈ 145 µM) (44-fold).

In the case of Cc1cccc(-n2c(O)c(C=NCCN3CCNCC3)c(=O)[nH]c2=S)c1, the solubility kinetic is reported as 51.2 µg/mL (≈ 137 µM).

Source: PubChem BioAssay AID1996
